Results published in patent US20250040935A1, “FABRICATION OF RADIOPAQUE RESORBABLE HYDROGEL BEADS VIA MICROFLUIDICS FOR CATHETER EMBOLIZATION APPLICATIONS” (Saint Louis University, priority 2023, published 2025).

Columns and labels:
Type in all cases: physicochemical
[1] = Apalutamide and docetaxel microsphere release study; details: within the first 24 hrs; microspheres, PEG and 20% w/v 1 μm BaSO4 groups
Procedure: Barium microspheres (20% w/v) were fabricated using the T-junction and then frozen overnight at −80 degrees Celsius. The next morning the microspheres were lyophilized for 1 day. Once the microspheres were fully lyophilized, they were then swollen in 10 μL 0.5 mg/mL docetaxel and apalutamide for 1 day. The next day, the excess drug was removed from the centrifuge tube and 500 μL 80:20 ethanol to DI water was added. A release study was then preformed as described above and the release profile for 20% barium microspheres was obtained.

[2] = Docetaxel release from PEG gels/microspheres (Example 1); details: in the first 60 minutes, loaded at 0.1 mg/ml, released in 20:80 anhydrous ethanol:di-water
Procedure: Docetaxel release and in vivo efficacy. Docetaxel was released from the PEG microspheres over several hours, with 60% released in the first 60 minutes (FIG. 2A). For bulk release experiments, docetaxel was dissolved in anhydrous ethanol, loaded in PEG gels at 0.1 mg/ml and released in a 20:80 anhydrous ethanol:di-water. Release was followed by absorbance measurements at 220 nm. […] PC3 cells (2×10^6 cells) were injected and grown to ˜120 mm^3 tumor volume prior to treatment.

[3] = Apalutamide and docetaxel bulk release from hydrogels; details: after 24 h; from both PEG-only and 20% BaSO4 hydrogel
Procedure: To determine bulk release of drugs from hydrogels, acridine orange (AO), docetaxel, bicalutamide, and apalutamide release into a sink volume was measured. Samples from the sink volume were taken over time and then the amount of sample volume that was taken out was replaced with the same amount of sink solution. The sink solution for AO experiments was PBS and the sink solution used for docetaxel, bicalutamide, and apalutamide was 80:20 ethanol to DI water. The absorbance of each sample solution was measured to calculate the concentration of drug in the sample solution. The equation used to calculate these concentrations was from the standard curves obtained for each drug or acridine orange (AO). The concentrations of drugs or AO in solution allowed for quantifying each drug release profile as well as their diffusion coefficient from a hydrogel. Apalutamide (0.5 mg/mL) stock solution was prepared in 80:20 DMSO or ethanol and DI water. A standard curve was constructed for apalutamide by creating samples of known concentrations and measuring the absorbance at 260 nm of each sample. Hydrogels were then fabricated with conditions: PEG+Doc+Apa and PEG+BaSO4+Doc+Apa (Table 6). […] Absorbances of 230 nm and 260 nm were measured for each sample to be able to obtain concentrations of docetaxel and apalutamide released into solution.

SMILES: CNC(=O)c1ccc(N2C(=S)N(c3cnc(C#N)c(C(F)(F)F)c3)C(=O)C23CCC3)cc1F [Apalutamide]
- initial burst release [1]: ~80%

SMILES: CC(=O)O[C@@]12CO[C@@H]1C[C@H](O)[C@@]1(C)C(=O)[C@H](O)C3=C(C)[C@@H](OC(=O)[C@H](O)[C@@H](NC(=O)OC(C)(C)C)c4ccccc4)C[C@@](O)([C@@H](OC(=O)c4ccccc4)[C@H]21)C3(C)C [Docetaxel]
- docetaxel released [2]: 60%
- drug released [3]: ~90%
- initial burst release [1]: ~90%
